This note sets out measurements from patent publication US20090270416A1, “N-OXIDES OF DIARYLUREA DERIVATIVES AND THEIR USE AS Chk1 INHIBITORS FOR THE TREATMENT OF CANCER” (SENTINEL ONCOLOGY LIMITED, priority 2006, published 2009).

Some results are limits rather than exact numbers.

The target in one series is T1, hERG potassium channel (Homo sapiens, UniProt Q12809).
T1 construct: expressed in transfected cells; host or cells: HEK-293
The series is described as follows: Functional hERG assay (patch clamp, HEK-293 cells). As to conditions: 5-point dose response, triplicate. It counts as cell-based. On the procedure: The N-oxide compounds of the invention and their tertiary amine precursors were each tested for hERG inhibiting activity using the method of Zhou Z, Gong Q, Ye B, Fan Z, Makielski J C, Robertson G A, January C T. Biophys J. 1998 January; 74(1):230-41.
Test compounds were tested in triplicate in a 5-point dose response curve on HEK-293 cells stably expressing the hERG potassium channel. Potassium current was measured using the patch clamp technique on a Molecular Devices Patch Express 7000. hERG channels were activated by 2 second pulses to +20 mV from a holding potential of −80 mV, and peak tail currents were recorded upon repolarization to −50 mV. This voltage-clamp pulse protocol was performed continuously during the experiment (vehicle control, test compound, washout, and positive control additions). An interpulse interval of 15 seconds allowed recovery from any residual inactivation. Test compounds were incubated with cells between 3-8 minutes until the current reached a steady state level, defined by a Standard Deviation of 0.01. After the final test compound concentration was tested, test compound was washed out with continuous perfusion of extracellular solution for 3 minutes, followed by application of positive control (10 μM Cisparide).
Test compounds were diluted in 100% DMSO at 1000× the highest concentration to be tested, vortexed, and sonicated. Visual inspection determined that compounds were completely solubilized. Test compounds were then diluted into glass vials in 100% DMSO for all test concentrations at 1000× the final concentration to be tested and vortexed. Test compounds were then diluted 1:1000 into extracellular solution and vortexed to achieve final concentration for testing. Final DMSO concentration was 0.1% for all concentrations of test compounds, Vehicle (negative) control, and Cisapride (positive) control in extracellular solution. The compositions of the solutions used were as follows:
Intracellular Soln (mM): KCl 130, EDTA 5, MgCl2 5, HEPES10, Na-ATP 5, pH=7.2 Extracellular Soln (mM): NaCl 137, KCl 4, CaCl2 1.8, MgCl2 1, Dextrose 11, HEPES 10, pH=7.4
(hERG is a cardiac potassium channel; its block is linked to QT prolongation.)

Another series addresses T2, CHK1 (h) (Homo sapiens, UniProt O14757).
T2 construct: purchased Upstate Ltd (assay run at Upstate)
T2 sequence (O14757 1-476): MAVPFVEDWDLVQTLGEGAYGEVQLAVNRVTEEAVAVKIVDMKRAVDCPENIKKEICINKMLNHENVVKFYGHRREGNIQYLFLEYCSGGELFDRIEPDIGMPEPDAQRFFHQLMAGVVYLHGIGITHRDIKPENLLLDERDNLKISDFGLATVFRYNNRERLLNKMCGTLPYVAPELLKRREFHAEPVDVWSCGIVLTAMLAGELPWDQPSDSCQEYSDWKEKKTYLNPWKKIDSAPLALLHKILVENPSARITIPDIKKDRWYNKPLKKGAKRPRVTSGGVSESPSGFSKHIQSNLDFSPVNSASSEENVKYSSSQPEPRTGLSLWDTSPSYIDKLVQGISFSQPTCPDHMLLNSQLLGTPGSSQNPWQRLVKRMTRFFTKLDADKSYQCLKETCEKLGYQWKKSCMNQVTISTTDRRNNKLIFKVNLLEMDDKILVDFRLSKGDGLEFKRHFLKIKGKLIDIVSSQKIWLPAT
The series is described as follows: Chk-1 kinase inhibiting activity (Upstate radiometric assay). It counts as biochemical. On the procedure: The N-oxide compounds of the invention and their tertiary amine precursors were tested for activity against the Chk-1 kinase.
The Chk-1 assay was conducted at Upstate Ltd, Gemini Crescent, Dundee Technology Park, Dundee, DD2 1 SW, UK in accordance with the protocol set out below. In a final reaction volume of 25 μl, CHK1 (h) (5-10 mU) is incubated with 8 mM MOPS pH 7.0, 0.2 mM EDTA, 200 μM […], 10 mM MgAcetate and γ-33P-ATP] (specific activity approx. 500 cpm/pmol, concentration as required). The reaction is initiated by the addition of the MgATP mix. After incubation for 40 minutes at room temperature, the reaction is stopped by the addition of 5 μl of a 3% phosphoric acid solution. 10 μl of the reaction mixture is then spotted onto a P30 filtermat and washed three times for 5 minutes in 75 mM phosphoric acid and once in methanol prior to drying and scintillation counting.

Series [1] concerns the target T3, human potassium channel hERG (Homo sapiens, UniProt Q12809).
T3 construct: expressed in transfected cells; host or cells: HEK-293
The series is described as follows: hERG binding activity ([3H] astemizole displacement, HEK-293 membranes). As to conditions: 1.5 nM [3H] astemizole; for IC50: 60 minutes at 25° C. On the procedure: The abilities of the N-oxide compounds of the invention and their tertiary amine precursors were tested using the assay described below.
Human recombinant HEK-293 cells stably transfected with a plasmid encoding the human potassium channel hERG were used to prepare membranes in modified HEPES pH 7.4 buffer using standard techniques. A 10 μg aliquot of membrane was incubated with 1.5 nM [^3H] astemizole in the presence of varying concentrations of test compound for 60 minutes at 25° C. The membranes were then filtered and washed three times and the filters were counted to determine the [^3H] astemizole specifically bound. From the counts, the extent of binding of the test compound and, in some cases, the IC50 values of the test compounds, were determined.

T1 sequence (Q12809 whole entry): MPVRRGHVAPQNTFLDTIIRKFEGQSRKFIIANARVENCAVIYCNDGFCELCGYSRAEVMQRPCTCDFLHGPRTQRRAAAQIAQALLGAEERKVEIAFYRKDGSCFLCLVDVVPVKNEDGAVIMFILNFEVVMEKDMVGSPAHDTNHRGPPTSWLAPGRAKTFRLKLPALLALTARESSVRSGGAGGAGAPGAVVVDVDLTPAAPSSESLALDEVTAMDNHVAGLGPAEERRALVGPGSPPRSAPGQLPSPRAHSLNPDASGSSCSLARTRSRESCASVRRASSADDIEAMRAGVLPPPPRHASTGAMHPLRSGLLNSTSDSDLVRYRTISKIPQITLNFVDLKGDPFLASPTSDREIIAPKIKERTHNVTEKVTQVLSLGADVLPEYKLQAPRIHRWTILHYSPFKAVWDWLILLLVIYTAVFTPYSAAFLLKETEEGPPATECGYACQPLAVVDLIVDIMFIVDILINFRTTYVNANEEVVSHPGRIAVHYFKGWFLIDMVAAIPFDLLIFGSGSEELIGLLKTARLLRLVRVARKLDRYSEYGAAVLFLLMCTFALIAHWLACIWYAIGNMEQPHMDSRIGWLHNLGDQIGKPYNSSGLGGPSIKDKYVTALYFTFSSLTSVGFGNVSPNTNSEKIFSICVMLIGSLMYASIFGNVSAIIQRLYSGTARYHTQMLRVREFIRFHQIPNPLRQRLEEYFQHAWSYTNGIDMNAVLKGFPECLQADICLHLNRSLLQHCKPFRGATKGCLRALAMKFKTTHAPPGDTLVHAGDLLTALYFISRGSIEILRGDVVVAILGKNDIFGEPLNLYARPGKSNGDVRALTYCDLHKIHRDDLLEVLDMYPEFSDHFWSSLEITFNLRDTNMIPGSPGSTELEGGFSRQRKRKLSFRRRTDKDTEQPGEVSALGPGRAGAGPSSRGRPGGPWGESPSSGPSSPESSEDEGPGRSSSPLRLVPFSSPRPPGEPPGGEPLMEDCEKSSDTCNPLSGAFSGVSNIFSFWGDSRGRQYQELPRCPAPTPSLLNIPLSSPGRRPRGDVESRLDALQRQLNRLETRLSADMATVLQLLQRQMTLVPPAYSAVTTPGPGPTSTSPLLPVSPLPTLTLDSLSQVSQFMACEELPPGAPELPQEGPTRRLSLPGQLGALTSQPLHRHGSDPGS
T3 sequence (Q12809 whole entry): as above

For orientation: IC50 means the concentration that inhibits the measured activity by half. A high value points to a need for much substance. With `CN(C)CCCOc1ccc(Cl)cc1NC(=O)Nc1cnc(C#N)cn1` [Example 3B, 1-[5-Chloro-2-(3-dimethylamino-propoxy)-phenyl]-3-(5-cyano-pyrazin-2-yl)-urea], the values for the 50% inhibitory concentration (IC50) (on hERG potassium channel; on CHK1 (h); in series [1]) were 0.435 µM, below 0.01 µM and 5.12 µM, respectively.

For the compound `C[N+](C)([O-])CCCOc1ccc(Cl)cc1NC(=O)Nc1cnc(C#N)cn1` [Example 3C, 1-[5-Chloro-2-(3-dimethyloxyamino-propoxy)-phenyl]-3-(5-cyano-pyrazin-2-yl)-urea], the IC50 against hERG potassium channel was 16.3 µM; at CHK1 (h), 0.024 µM. Moreover, in series [1] (@ 100 uM test compound), the “HERG Binding % @ 100 uM (extent of binding)” value was determined as 46% @ 100 uM.

With `CN(C)CCCOc1ccc(Cl)cc1NC(=O)Nc1ccc(C#N)cn1` [Example 4B, 1-[5-Chloro-2-(3-dimethylamino-propoxy)-phenyl]-3-(5-cyano-pyridin-2-yl)-urea], the figures for the IC50 (at hERG potassium channel; at CHK1 (h); in series [1]) were 0.13 µM, 0.279 µM and 0.445 µM, respectively.

With `C[N+](C)([O-])CCCOc1ccc(Cl)cc1NC(=O)Nc1ccc(C#N)cn1` [Example 4C, 1-[5-Chloro-2-(3-dimethyloxylamino-propoxy)-phenyl]-3-(5-cyano-pyridin-2-yl)-urea], the results for the half-maximal inhibitory concentration (IC50) (at hERG potassium channel; at CHK1 (h); in series [1]) were 2.44 µM, 0.581 µM and 7.67 µM, respectively.
